The source of these data is US20070031398A1, “One of several enzyme-containing compounds, dietetic food products and drugs produced from and the use therefor for medical purpose” (MUCOS PHARMA GmbH & Co., priority 2003, published 2007).

For the assay, the system named is prostate carcinomas. In words: concomitant therapy during treatment of carcinomas. The format is in vivo. The note with it: prophylactic and therapeutic effects. From the text: This applies both to the period before, during and at defined intervals after the tumor-destructive therapy, e.g. an operation, chemotherapy and/or radiotherapy. The reduced intake of micronutrients (e.g. vitamins, trace elements) which is caused by nausea, reduced food intake, vomiting, diarrhea and sweating is compensated. This improves the patient's tolerance of the treatment, increases the response to the therapy and improves the patient's quality of life. […] Overall, the efficacy of the tumor-destructive therapy is improved.

For `CC(C)=CCC/C(C)=C/C=C/C(C)=C/C=C/C(C)=C/C=C/C=C(C)/C=C/C=C(C)/C=C/C=C(\C)CCC=C(C)C` [lycopene], the “incidence and aggressiveness of prostate carcinomas” value was “reduction in the incidence and aggressiveness”.
